“And” between values parts separate entries of the source, which are not always exact repeats. Equal entries are not always repeated.
Columns and labels:
[1] = in patients; cited from earlier work
[2] = Plasma trough levels (Cmin) of Imatinib and CGP74588, IRIS study (LC/MS/MS); assay type: in vivo
CML-CP patients = assay: CCR and MMR rates by steady-state Imatinib trough level quartile, IRIS study; assay type: in vivo, human
Method: Rates of CCR (defined as 0% Ph+ metaphase cells out of at least 20 examined) in the study population and major molecular response (MMR, defined as ≧3 log reduction in BCR-ABL/BCR ratio from a standardized baseline) in subjects who achieved CCR before were reported previously (O'Brien S G, Guilhot F, Larson R A, et al., see above).
CCR were evaluated up to 5 years.

CML patients = assay: Cytogenetic (CCR) and molecular (MMR) response to Imatinib mesylate therapy and ROC curve analysis, Bordeaux study; assay type: in vivo, human; conditions: of 68 CML patients, after at least one year's treatment, 400 or 600 mg once daily
Method: The cytogenetic response to Imatinib mesylate therapy was assessed using a conventional cytogenetic analysis of bone marrow metaphases. Cytogenetic responders were defined as having CCR, i.e. 0 percent of Philadelphia-chromosome-positive metaphases among at least 25 cells in metaphase in the bone marrow aspirate (Colombat M, Fort M P, Chollet C, et al. Haematologica 2006; 91:162-8.). Real-time quantitative reverse-transcriptase polymerase chain reaction assay was used to assess BCR-ABL transcript levels and quantify the molecular response (Colombat M, Fort M P, Chollet C, et al. see above). Briefly, EDTA-anticoagulated peripheral blood was collected to perform RNA extraction followed by real-time quantitative reverse-transcriptase polymerase chain reaction. […] Quantification of BCR-ABL transcripts was performed according to recommendations recently proposed for harmoniza-tion of results (Hughes T P, Deininger M, Hochhaus A, et al. Blood 2006; 108:28-37.). […] A standardized baseline was calculated by measuring the ratio of BCR-ABL/ABL in 40 chronic-phase CML patients from blood collected before any treatment. […]
Any relationship between BCR-ABL transcript levels and the range time from date of Imatinib mesylate treatment initiation to date of molecular analysis was evaluated.
Results were expressed as adjusted odds ratio; 95 percent confidence interval; P value of Wald test.

[3] = Trough plasma Imatinib concentrations at steady-state, Bordeaux study (HPLC-ESI-MS/MS)
[4] = tested on: newly diagnosed patients with CML in chronic phase (CML-CP); conditions: cited from earlier work
[5] = Day 29, Quartiles 2 and 3, N = 178
[6] = 400 mg daily, 50 patients, steady-state
[7] = 600 mg daily, 18 patients, steady-state
[8] = patients without MMR (34 patients)
[9] = five year follow-up, first-line imatinib

In the case of Cc1ccc(NC(=O)c2ccc(CN3CCNCC3)cc2)cc1Nc1nccc(-c2cccnc2)n1 [CGP74588, N-{5-[4-(piperazino-methyl)-benzoylamido]-2-methylphenyl}-4-(3-pyridyl)-2-pyrimidine-amine], the “Metabolite level as share of the parent drug plasma level” value [1] is listed as about 20%, the “Steady-state trough level, mean (±SD)” value ([2]; Day 29, 400 mg daily, overall N = 351) is listed as 241.9±105.5 ng/mL and 242 (±105.5) ng/mL and the “CGP74588/Imatinib trough concentration ratio, mean (±SD)” value ([2]; Day 29, Quartile 1, N = 87) is listed as 0.32 (±0.106). The “Steady-state trough level, mean (±SD)” value ([2]; Day 29, Quartile 1, N = 87) was 153 (±48.5) ng/mL, the “CGP74588/Imatinib trough concentration ratio, mean (±SD)” value ([2]; Day 29, Quartile 4, N = 86) was 0.21 (±0.052) and the “Steady-state trough level, mean (±SD)” value ([2]; Day 29, Quartile 4, N = 86) was 343 (±126.1) ng/mL. For the same compound, the “CGP74588/Imatinib trough concentration ratio, mean (±SD)” value [2, 5] was 0.27 (±0.068), the “Steady-state trough level, mean (±SD)” value [2, 5] was 236 (±65.8) ng/mL and the “24-hour trough concentration after the first dose” value ([2]; first 400 mg dose, Day 2, mean±SD) was 82.7 ± 47.4 ng/mL. The “Contribution of the metabolite to Imatinib exposure” value ([2]; in vivo) was under 20%, the “Spearman correlation coefficient between parent drug and metabolite levels” value ([2]; in vivo) was 0.76 and the “Accumulation ratio to steady state” value ([2]; trough levels on days 2 and 29 in the same subject) was 3.38±1.54.

With Cc1ccc(NC(=O)c2ccc(CN3CCN(C)CC3)cc2)cc1Nc1nccc(-c2cccnc2)n1 [Imatinib, 4-(4-methylpiperazin-1-ylmethyl)-N-[4-methyl-3-(4-(pyridin-3-yl)pyrimidin-2-ylamino)phenyl]-benzamide] the “MMR (%) in pts with CCR” value (CML-CP patients; 1 year, Quartile 1) was 43%, the CCR rate (CML-CP patients; 1 year, Quartile 1 (n = 87)) was 59% and the “MMR (%) in pts with CCR” value (CML-CP patients; 1 year, Quartile 4) was 55%. For the same compound, the CCR rate (CML-CP patients; 1 year, Quartile 4 (n = 86)) was 73%, the “MMR (%) in pts with CCR” value (CML-CP patients; 1 year, Quartiles 2 and 3) was 56% and the CCR rate (CML-CP patients; 1 year, Quartiles 2 and 3 (n = 178)) was 71%. The CCR rate (CML-CP patients; 2 years, Quartile 1) was 73%, the “MMR (%) in pts with CCR” value (CML-CP patients; 2 years, Quartile 1) was 63% and the CCR rate (CML-CP patients; 2 years, Quartile 4) was 84%. The “MMR (%) in pts with CCR” value (CML-CP patients; 2 years, Quartile 4) was 86%, the CCR rate (CML-CP patients; 2 years, Quartiles 2 and 3) was 80% and the “MMR (%) in pts with CCR” value (CML-CP patients; 2 years, Quartiles 2 and 3) was 78%. The CCR rate (CML-CP patients; 4 years, Quartile 1) was 81%, the “MMR (%) in pts with CCR” value (CML-CP patients; 4 years, Quartile 1) was 65% and the CCR rate (CML-CP patients; 4 years, Quartile 4) was 89%. For the same compound, the “MMR (%) in pts with CCR” value (CML-CP patients; 4 years, Quartile 4) was 90%, the CCR rate (CML-CP patients; 4 years, Quartiles 2 and 3) was 87% and the “MMR (%) in pts with CCR” value (CML-CP patients; 4 years, Quartiles 2 and 3) was 83%. The “Time to CCR” value (CML-CP patients; Quartile 1) was 8.3 Month, the “Time to MMR in pts with CCR” value (CML-CP patients; Quartile 1) was 16.7 months and the “Time to CCR” value (CML-CP patients; Quartile 4) was 5.6 Month. For the same compound, the “Time to CCR” value (CML-CP patients; Quartiles 2 and 3) was 5.7 Month, the “Estimated MMR rate, all patients” value (CML-CP patients; at 1 year, Imatinib levels <647 ng/mL) was 25% and the “Estimated MMR rate, all patients” value (CML-CP patients; by 4 years, Q1) was 53%. For the same compound, the “Estimated MMR rate, all patients” value (CML-CP patients; by 4 years, Q4) was 80%, the “Estimated MMR rate, all patients” value (CML-CP patients; by 4 years, inter-quartile range (IQ)) was 72% and the “Estimated MMR rate, all patients” value (CML-CP patients; within 1 year, patients with higher Imatinib levels) was 40%. For the same compound, the “Number of patients who achieved a CCR” value (CML patients) was 56, the “Steady-state trough level, mean (±SD)” value ([2]; Day 29, Quartile 1, N = 87) was 490 (±119.7) ng/mL and the “Steady-state trough level, mean (±SD)” value ([2]; Day 29, Quartile 4, N = 86) was 1661 (±602.0) ng/mL. The “Steady-state trough level, mean (±SD)” value [2, 5] was 889 (±148.2) ng/mL, the “Imatinib trough exposure (Cmin), mean” value ([2]; Day 29, patients who achieved CCR) was 1009 ± 544 ng/mL and 1009 ng/mL and the “Imatinib trough exposure (Cmin), mean” value ([2]; Day 29, patients who did not achieve CCR) was 812 ± 409 ng/mL and 812 ng/mL. For the same compound, the “Increase in trough level” value ([2]; age from 20 years to 70 years, linear relationship assumed) was 295 ng/mL, the Plasma trough level ([2]; females, steady state) was 1078 ± 514.5 ng/mL and the concentration at 24 h ([2]; human, plasma, first 400 mg dose, Day 2, mean±SD, read-out: 24-hour trough concentration after the first dose) was 518 ± 370 ng/mL. For the same compound, the Plasma trough level ([2]; males, steady state) was 921 ± 530.8 ng/mL, the “Difference in plasma trough level, females vs males” value ([2]; steady state) was 17.2% and the “Estimated decrease in trough level” value ([2]; weight increase from 40 kg to 120 kg, linear relationship assumed) was “approximately 280 ng/ml”. The “Trough plasma Imatinib concentration, mean value” ([3]; 400 mg daily Imatinib mesylate, 50 patients, steady-state) was 1058 ng per millilitre, the “Trough plasma Imatinib concentration, Q 25 (first quartile)” value [3, 6] was 722 ng per millilitre and the “Trough plasma Imatinib concentration, Q 75 (third quartile)” value [3, 6] was 1285 ng per millilitre. The “Trough plasma Imatinib concentration, maximum” value [3, 6] was 2947 ng per millilitre, the “Trough plasma Imatinib concentration, median” value [3, 6] was 997 ng per millilitre and the “Trough plasma Imatinib concentration, minimum” value [3, 6] was 181 ng per millilitre. For the same compound, the “Trough plasma Imatinib concentration, Q 25 (first quartile)” value [3, 7] was 902 ng per millilitre, the “Trough plasma Imatinib concentration, Q 75 (third quartile)” value [3, 7] was 1629 ng per millilitre and the “Trough plasma Imatinib concentration, maximum” value [3, 7] was 2922 ng per millilitre. For the same compound, the “Trough plasma Imatinib concentration, median” value [3, 7] was 1315 ng per millilitre, the “Trough plasma Imatinib concentration, minimum” value [3, 7] was 603 ng per millilitre and the “Mean (±SD) trough plasma Imatinib concentration” value ([3]; patients with CCR (56 patients)) was 1123.3±616.6 ng per millilitre. The “Median trough plasma Imatinib concentration” value ([3]; patients with MMR (34 patients)) was 1350.2 ng per millilitre, the “Mean (±SD) trough plasma Imatinib concentration” value ([3]; patients without CCR (12 patients)) was 694.2±556.0 ng per millilitre and the “Mean (±SD) trough plasma Imatinib concentration” value [3, 8] was 869.3±427.5 ng per millilitre. The “Median trough plasma Imatinib concentration” value [3, 8] was 885.5 ng per millilitre, the “Efficacy compared with IFN+Ara-C” value ([4]; 400 mg daily, newly diagnosed CML-CP) was “superior efficacy to IFN+Ara-C” and the “Estimated cumulative rate of complete cytogenetic response (CCR)” value [4, 9] was 87%. The Overall survival [4, 9] was 89%.
